Reference: patent US7256211B1, “8-azaprostaglandin derivatives and medical use thereof” (ONO Pharmaceutical Co., Ltd., priority 2003, dated 2007)

Target: T1, EP4 receptor (Mus musculus, UniProt P32240)
T1 construct: expressed in transfected cells; host or cells: CHO cells (membrane fraction)
Assay: Receptor-binding experiment using CHO cell membranes expressing prostanoid receptor sub-types (3H-PGE2 displacement)
Details: membrane fraction of CHO cells expressing murine EP4; 3H-PGE2 2.5 nM; Ki=IC50/(1+([C]/Kd))
Method: (i) Experiment for Receptor-Binding Using Cells which Express Prostanoid Receptor Sub-Types
According to the method of Sugimoto et al. (J. Biol. Chem., 267, 6463–6466 ([…])), CHO cells which expressed prostanoid receptor sub-types (murine EP1, EP2, EP3α, and EP4 respectively) were prepared and used as membrane authentic samples.
A reaction solution (200 μL) containing the prepared membrane fraction (0.5 mg/ml) and ^3H-PGE2 was incubated at room temperature for an hour. The reaction was terminated with ice cold buffer (3 mL), and the reaction mixture was suction filtrated under reduced pressure through a glass filter (GF/B), on which the binding ^3H-PGE2 was trapped, and the binding radioactivity was measured by means of a liquid scintillator.
The Kd value was obtained from the Scatchard plots (Ann. N.Y. Acad. Sci., 51, 660 (1949)). Non-specific binding was obtained as the binding in the presence of an excess amount (2.5 μM) of unlabelled PGE2. Measurement of the binding inhibition for ^3H-PGE2 with the compounds of the invention was performed by adding ^3H-PGE2 (2.5 nM) and a series of concentrations of the compounds of the invention. In this reaction, the following buffer was used in all cases. • Buffer: 10 mM potassium phosphate (pH6.0), 1 mM EDTA, 10 mM MgCl2 and 0.1M NaCl.
Dissociation constant Ki (μM) of each compounds was calculated from the following equation. […]

T1 sequence (P32240 whole entry): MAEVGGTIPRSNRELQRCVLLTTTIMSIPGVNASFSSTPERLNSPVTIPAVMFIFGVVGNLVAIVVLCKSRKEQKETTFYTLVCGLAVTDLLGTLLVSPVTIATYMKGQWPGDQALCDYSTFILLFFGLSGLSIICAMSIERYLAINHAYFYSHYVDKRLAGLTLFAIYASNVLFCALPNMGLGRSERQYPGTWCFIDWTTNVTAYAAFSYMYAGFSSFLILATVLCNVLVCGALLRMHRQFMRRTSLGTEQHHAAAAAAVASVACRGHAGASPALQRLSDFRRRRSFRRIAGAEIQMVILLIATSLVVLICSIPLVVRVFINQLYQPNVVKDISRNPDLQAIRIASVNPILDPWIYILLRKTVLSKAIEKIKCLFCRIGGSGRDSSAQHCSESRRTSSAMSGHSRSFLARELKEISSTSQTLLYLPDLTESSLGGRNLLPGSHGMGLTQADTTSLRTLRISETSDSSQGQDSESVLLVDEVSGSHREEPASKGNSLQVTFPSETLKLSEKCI

Ki: 6.4 nM
Compound: Cc1cc(C)cc(C[C@H](O)/C=C/[C@H]2CCC(=O)N2CCc2ccc(C(=O)O)cc2)c1 [Example 5, (15α,13E)-1,6-(1,4-interphenylene)-9-oxo-15-hydroxy-16-(3,5-dimethylphenyl)-2,3,4,5,17,18,19,20-octanol-8-azaprost-13-enoic acid]
